Laboratory results from publication PMC4154469, “Extracellular gentamicin reduces the activity of connexin hemichannels and interferes with purinergic Ca^2+ signaling in HeLa cells” (Frontiers in Cellular Neuroscience, 2014).

What was measured:
[1] = molecular target: T1, connexin45 (mCx45) hemichannel (Mus musculus, UniProt P28229); experiment: ethidium uptake in HeLa-mCx45 cells, […] streptomycin; assay type: cell-based
T1 construct: gene Gjc1; mouse Cx45 (NM_001159383.1) stably expressed in HeLa cells

[2] = molecular target: T2, connexin43 (mCx43) hemichannel (Mus musculus, UniProt P23242); experiment: ethidium uptake in HeLa-mCx43 cells, […] streptomycin; assay type: cell-based
T2 construct: gene Gja1; mouse Cx43 (NM_010288.3) stably expressed in HeLa cells
T2 sequence (P23242 2-382): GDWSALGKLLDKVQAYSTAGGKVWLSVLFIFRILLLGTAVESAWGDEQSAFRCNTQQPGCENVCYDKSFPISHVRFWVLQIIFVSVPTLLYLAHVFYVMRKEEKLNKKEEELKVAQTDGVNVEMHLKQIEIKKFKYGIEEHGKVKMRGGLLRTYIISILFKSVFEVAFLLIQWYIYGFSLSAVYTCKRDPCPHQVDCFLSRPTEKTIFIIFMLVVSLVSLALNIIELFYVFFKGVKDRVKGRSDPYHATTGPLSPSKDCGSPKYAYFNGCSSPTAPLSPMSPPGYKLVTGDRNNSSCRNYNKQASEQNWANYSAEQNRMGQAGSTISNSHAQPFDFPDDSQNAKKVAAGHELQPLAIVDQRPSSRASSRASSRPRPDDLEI

T1 sequence (P28229 whole entry): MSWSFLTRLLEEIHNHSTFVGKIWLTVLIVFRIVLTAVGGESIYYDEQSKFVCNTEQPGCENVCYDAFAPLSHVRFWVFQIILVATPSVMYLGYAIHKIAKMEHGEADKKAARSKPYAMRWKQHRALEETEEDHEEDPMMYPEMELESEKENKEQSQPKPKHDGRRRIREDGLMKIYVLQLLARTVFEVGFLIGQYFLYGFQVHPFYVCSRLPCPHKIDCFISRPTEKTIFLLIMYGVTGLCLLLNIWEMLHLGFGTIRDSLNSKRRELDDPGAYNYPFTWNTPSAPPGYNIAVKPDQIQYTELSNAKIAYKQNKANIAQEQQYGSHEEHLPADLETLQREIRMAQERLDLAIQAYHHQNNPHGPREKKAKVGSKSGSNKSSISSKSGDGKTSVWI

[H]/N=C(/N)N[C@H]1[C@H](O)[C@@H](O)[C@H](O[C@@H]2O[C@@H](C)[C@](O)(C=O)[C@H]2O[C@@H]2O[C@@H](CO)[C@H](O)[C@@H](O)[C@@H]2NC)[C@@H](N/C(N)=N\[H])[C@@H]1O [streptomycin]
ethidium uptake in HeLa-mCx45 cells, 200 μM streptomycin [1]: In HeLa-mCx45 cells, Etd uptake was reduced to values below the ones recorded under control condition
ethidium uptake in HeLa-mCx43 cells, 200 μM streptomycin [2]: also inhibited the Etd uptake of HeLa-rCx26 (Figures 2E,F), -mCx43 and -mCx45 cells in DCFS
